Test results as given in PMC5771072, “Benefits of VCE-003.2, a cannabigerol quinone derivative, against inflammation-driven neuronal deterioration in experimental Parkinson’s disease: possible involvement of different binding sites at the PPARγ receptor” (Journal of Neuroinflammation, 2018).

Biological target: T1, PPARγ (Homo sapiens, UniProt P37231)
T1 construct: gene PPARG; GAL4-PPARγ
T1 sequence (P37231 1-505): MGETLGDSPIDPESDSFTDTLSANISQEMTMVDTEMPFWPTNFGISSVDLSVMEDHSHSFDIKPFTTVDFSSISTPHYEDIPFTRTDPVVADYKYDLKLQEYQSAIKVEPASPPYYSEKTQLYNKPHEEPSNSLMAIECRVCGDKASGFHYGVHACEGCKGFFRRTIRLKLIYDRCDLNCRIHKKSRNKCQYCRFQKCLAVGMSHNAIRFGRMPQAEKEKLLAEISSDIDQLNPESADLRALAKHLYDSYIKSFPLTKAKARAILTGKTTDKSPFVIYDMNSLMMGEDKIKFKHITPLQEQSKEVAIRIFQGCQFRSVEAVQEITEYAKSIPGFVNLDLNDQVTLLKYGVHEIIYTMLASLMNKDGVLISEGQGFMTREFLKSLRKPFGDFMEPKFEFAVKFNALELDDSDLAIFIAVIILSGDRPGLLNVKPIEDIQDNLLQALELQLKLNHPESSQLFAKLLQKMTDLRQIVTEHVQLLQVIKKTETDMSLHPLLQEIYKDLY
Experiment: GAL4-PPARγ/GAL4-luc luciferase transactivation in transfected HEK-293T cells (reference full agonist)
Assay type: cell-based

SMILES: CN(CCOc1ccc(CC2SC(=O)NC2=O)cc1)c1ccccn1 (stereo not shown) [Rosiglitazone]
- GAL4-PPARγ/GAL4-luc luciferase transactivation in transfected HEK-293T cells (re): RGZ activates PPARγ by acting mainly through the canonical binding site
